Experimental data reported in ChEMBL document CHEMBL1201862, “PubChem BioAssay data set” (2004).
The source made the active and inactive calls.

Experiments:
[1] = biological target: T1, Hepatocyte nuclear factor 4-alpha (Homo sapiens, UniProt P41235); type: functional, cell-based;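 note: biochemical luminescence-based dose-response counterscreen measuring inhibition of HNF4 dimerization, run alongside a screen for blockers of ABHD5–perilipin-5 interaction; split luciferase complementation of HNF4 fusion proteins in cell lysate measuring dimerization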
T1 sequence (P41235 whole entry): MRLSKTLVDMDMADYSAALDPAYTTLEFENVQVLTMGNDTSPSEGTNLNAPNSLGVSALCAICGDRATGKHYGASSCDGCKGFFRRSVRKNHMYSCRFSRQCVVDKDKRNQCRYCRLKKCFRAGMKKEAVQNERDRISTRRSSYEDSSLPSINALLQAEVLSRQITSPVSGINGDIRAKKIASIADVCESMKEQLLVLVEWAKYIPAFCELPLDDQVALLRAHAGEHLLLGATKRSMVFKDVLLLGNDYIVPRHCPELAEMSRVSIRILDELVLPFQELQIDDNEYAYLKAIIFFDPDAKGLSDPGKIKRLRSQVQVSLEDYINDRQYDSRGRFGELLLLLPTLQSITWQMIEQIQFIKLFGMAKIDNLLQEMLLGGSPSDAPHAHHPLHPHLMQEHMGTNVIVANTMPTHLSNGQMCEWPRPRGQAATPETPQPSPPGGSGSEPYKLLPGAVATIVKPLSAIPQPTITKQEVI

[2] = biological target: Voltage-dependent T-type calcium channel subunit alpha-1H (Homo sapiens, UniProt O95180); type: functional;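 note: channel activity triggered by adding a high calcium stimulation buffer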
Voltage-dependent T-type calcium channel subunit alpha-1H, sequence (O95180 whole entry): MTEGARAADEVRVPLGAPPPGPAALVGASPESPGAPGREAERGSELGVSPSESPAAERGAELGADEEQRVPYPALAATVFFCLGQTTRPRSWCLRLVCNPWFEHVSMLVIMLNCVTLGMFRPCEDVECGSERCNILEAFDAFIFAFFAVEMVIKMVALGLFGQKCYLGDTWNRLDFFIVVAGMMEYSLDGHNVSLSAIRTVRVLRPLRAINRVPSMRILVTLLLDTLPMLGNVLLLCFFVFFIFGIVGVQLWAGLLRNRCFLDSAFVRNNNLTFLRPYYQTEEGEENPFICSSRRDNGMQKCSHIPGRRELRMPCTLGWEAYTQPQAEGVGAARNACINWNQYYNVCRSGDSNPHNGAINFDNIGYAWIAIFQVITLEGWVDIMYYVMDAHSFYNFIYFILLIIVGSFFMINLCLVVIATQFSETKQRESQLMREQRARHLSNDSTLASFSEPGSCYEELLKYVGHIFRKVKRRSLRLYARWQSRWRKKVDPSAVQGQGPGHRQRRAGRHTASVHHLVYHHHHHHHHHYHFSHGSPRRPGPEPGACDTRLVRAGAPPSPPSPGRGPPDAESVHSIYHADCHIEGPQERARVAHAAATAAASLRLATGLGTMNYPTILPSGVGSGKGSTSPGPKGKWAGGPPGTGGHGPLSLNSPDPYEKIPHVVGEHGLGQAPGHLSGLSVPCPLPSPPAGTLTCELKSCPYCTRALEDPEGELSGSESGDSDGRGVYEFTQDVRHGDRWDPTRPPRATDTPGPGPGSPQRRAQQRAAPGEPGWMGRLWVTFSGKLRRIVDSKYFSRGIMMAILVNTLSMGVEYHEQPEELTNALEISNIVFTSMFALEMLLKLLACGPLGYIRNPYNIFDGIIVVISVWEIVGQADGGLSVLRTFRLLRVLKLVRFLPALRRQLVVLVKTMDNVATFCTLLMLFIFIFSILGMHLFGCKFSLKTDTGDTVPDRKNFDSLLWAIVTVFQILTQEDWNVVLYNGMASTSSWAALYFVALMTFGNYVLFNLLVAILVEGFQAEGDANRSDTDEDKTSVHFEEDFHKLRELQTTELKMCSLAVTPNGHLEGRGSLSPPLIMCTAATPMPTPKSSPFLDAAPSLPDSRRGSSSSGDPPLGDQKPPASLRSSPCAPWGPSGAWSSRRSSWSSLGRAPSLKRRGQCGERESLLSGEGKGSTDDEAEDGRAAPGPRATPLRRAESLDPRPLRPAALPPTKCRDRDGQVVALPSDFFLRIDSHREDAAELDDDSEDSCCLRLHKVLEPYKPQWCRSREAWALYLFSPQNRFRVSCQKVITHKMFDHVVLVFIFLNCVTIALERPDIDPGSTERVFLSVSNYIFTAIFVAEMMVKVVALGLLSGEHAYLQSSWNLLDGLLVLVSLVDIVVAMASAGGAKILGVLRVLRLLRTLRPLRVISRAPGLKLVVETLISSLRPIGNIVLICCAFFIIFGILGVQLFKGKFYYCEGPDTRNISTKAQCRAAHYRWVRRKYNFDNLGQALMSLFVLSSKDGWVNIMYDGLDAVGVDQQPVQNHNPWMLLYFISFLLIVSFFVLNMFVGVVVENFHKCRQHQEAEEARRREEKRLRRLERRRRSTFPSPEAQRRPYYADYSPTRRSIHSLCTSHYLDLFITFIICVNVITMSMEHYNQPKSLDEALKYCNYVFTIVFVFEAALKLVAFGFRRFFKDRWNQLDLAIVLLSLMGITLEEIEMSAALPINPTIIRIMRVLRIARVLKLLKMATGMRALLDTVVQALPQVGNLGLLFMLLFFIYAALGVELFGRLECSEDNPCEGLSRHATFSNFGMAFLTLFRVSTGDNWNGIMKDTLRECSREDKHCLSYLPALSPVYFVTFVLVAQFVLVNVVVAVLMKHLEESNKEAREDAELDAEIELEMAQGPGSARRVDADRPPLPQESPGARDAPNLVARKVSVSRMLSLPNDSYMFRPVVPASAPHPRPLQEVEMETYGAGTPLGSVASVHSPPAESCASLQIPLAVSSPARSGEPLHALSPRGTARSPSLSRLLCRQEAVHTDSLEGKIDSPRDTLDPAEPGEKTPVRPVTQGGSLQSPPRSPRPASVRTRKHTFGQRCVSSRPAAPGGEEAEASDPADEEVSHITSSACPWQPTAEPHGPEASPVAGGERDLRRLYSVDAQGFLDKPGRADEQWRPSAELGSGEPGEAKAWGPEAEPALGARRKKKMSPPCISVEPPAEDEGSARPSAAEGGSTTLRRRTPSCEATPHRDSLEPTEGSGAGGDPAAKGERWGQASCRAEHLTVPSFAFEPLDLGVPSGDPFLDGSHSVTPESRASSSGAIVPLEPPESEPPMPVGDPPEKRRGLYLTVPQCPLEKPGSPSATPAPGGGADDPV

HEK293 [3] = assay: inhibition of NOD1-driven NF-kB reporter – cell-based, luminescence, uHTS, primary screen (AID 1578); type: functional; details: Homo sapiens
HEK293 [4] = assay: cells; type: functional, cell-based; details: Homo sapiens
HEK293 [5] = assay: cells; type: functional, cell-based; details: Homo sapiens; remark: listed apart in the source
[6] = biological target: Nucleotide-binding oligomerization domain-containing protein 2 (Homo sapiens, UniProt Q9HC29); assay: inhibition of NOD2-driven NF-kB reporter – cell-based, luminescence, uHTS, HEK293 (AID 1566); type: functional
Nucleotide-binding oligomerization domain-containing protein 2, sequence (Q9HC29 whole entry, the tested form may be a part): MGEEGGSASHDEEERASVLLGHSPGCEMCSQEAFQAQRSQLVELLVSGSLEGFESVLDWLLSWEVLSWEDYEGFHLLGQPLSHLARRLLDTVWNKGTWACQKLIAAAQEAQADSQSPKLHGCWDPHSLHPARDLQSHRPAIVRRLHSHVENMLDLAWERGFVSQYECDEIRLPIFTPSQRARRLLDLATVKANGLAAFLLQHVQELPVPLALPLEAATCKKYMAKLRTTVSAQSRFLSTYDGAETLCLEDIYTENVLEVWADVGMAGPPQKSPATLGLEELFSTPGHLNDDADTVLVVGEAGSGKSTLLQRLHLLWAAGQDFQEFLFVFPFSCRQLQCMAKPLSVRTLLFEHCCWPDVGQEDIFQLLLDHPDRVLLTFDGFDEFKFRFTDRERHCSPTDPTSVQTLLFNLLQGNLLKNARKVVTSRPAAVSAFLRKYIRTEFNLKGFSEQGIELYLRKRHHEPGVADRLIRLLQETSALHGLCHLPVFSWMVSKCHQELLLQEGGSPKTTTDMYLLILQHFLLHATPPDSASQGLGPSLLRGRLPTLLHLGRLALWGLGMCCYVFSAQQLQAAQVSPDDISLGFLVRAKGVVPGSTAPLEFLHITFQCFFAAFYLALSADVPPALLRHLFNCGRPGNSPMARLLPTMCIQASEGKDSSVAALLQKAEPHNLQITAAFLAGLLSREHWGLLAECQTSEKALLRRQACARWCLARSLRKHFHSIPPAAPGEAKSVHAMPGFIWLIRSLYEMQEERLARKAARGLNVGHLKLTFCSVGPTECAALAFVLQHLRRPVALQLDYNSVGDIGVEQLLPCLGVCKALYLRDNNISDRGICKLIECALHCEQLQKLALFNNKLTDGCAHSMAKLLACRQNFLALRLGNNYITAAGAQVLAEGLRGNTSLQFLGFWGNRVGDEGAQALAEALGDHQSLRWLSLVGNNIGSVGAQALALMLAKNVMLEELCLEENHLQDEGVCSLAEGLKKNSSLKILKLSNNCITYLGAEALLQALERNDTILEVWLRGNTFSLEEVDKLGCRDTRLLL

HEK293 [7] = assay: NOD2 signaling inhibitors in MDP-stimulated cells, cell-based, uHTS, luminescence (AID 2001); type: functional; details: Homo sapiens
HEK293 [8] = assay: cells; type: functional, cell-based; details: Homo sapiens; remark: listed apart in the source
[9] = viability of uninfected HEp-2 cells – cell-based, HTS, cytotoxicity control for RSV inhibitor project, dose response (AID 2410); type: functional; details: human respiratory syncytial virus
Estrogen receptor beta = Estrogen receptor beta (Homo sapiens, UniProt Q92731);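 note: recombinant ER-beta bound to coactivator SRC1 peptide in presence of estradiol agonist; inhibitors block coactivator peptide binding and lower the FRET signal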
Estrogen receptor beta, sequence (Q92731 whole entry): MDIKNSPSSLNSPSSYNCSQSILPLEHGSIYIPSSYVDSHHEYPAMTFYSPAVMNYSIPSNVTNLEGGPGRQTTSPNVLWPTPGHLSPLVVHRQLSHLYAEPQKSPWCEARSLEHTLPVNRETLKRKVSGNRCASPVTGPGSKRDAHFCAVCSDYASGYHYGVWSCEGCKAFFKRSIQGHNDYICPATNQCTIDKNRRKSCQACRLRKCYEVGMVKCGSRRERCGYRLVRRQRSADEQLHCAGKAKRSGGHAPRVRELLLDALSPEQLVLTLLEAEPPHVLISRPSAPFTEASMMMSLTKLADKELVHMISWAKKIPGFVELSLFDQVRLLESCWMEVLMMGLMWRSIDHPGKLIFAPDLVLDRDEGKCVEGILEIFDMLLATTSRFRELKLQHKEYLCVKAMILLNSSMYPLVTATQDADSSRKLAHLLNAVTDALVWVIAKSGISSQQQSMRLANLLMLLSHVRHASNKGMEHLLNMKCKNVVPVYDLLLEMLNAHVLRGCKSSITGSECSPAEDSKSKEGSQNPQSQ

[10] = biological target: Protein-tyrosine kinase 2-beta (Homo sapiens, UniProt Q14289);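 note: potency of inhibitors of PYK2 kinase phosphorylation of poly-GT substrate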
Coagulation factor XII = biological target: T2, Coagulation factor XII (Homo sapiens, UniProt P00748); type: functional;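 note: activated factor XIIa alpha cleaving a fluorogenic AMC peptide substrate; inhibitor potency from loss of enzyme activity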
T2 sequence (P00748 whole entry): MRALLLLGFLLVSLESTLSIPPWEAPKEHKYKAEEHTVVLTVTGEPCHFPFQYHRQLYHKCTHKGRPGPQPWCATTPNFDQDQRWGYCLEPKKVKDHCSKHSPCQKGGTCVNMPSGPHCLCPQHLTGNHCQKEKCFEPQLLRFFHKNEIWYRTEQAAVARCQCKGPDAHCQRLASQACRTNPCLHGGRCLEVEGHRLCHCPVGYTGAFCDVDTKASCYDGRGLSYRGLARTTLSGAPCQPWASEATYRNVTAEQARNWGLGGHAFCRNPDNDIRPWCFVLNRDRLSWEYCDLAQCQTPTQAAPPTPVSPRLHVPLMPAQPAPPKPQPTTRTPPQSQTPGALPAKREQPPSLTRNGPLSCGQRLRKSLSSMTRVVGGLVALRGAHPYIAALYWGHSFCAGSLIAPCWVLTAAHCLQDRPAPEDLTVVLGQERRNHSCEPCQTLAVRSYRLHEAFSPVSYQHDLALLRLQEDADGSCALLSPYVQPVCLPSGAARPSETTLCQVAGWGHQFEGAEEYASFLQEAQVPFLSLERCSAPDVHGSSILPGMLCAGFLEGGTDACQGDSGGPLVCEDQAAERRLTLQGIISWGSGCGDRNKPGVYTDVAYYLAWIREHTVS

cells [11] = type: functional, cell-based
[12] = biological target: T3, Trace amine-associated receptor 1 (Homo sapiens, UniProt Q96RJ0); assay: Fluorescence-based cell-based high throughput dose response assay to identify agonists of the human trace amine associated receptor 1 (TAAR1).; type: functional
T3 sequence (Q96RJ0 whole entry): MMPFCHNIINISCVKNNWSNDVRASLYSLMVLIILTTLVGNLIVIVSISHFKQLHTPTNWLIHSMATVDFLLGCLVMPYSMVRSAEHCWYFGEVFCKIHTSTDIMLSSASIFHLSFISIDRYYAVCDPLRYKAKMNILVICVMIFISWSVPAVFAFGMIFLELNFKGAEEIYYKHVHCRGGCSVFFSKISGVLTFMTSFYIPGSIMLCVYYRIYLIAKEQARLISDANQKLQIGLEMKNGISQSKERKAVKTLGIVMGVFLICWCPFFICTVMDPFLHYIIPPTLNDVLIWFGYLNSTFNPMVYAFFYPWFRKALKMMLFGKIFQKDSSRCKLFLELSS

[13] = biological target: T3, Trace amine-associated receptor 1; assay: Counterscreen for agonists of the human trace amine associated receptor 1 (hTAAR1): Fluorescence-based cell-based high throughput dose response assay to identify hTAAR1 agonist that also desensitize TAAR1 receptor response.; type: functional
cells [14] = type: functional, cell-based; remark: listed apart in the source
[15] = rise of 2N DNA cells, HeLa – IC50, dose response (AID 1117349); type: functional, cell-based
[16] = rise of 4N DNA cells, HeLa – IC50, dose response (AID 1117351); type: functional, cell-based
[17] = tested on: Streptococcus sp. 'group A'; assay: Streptococcus pyogenes SK(-)GAS viability under kanamycin – luminescence, BacTiterGlo, confirmation, counter-screen for streptokinase expression inhibitor project, dose response (AID 1900); type: functional, organism-based
cells [18] = type: functional, cell-based; remark: listed apart in the source
cells [19] = type: functional, cell-based; remark: listed apart in the source
Streptococcus = assay: GAS UMAA2166 growth inhibition – luminescence, BacTiterGlo, counter-screen for streptokinase expression inhibitor project, dose response (AID 1915); type: functional, organism-based;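 note: potency for reduction of bacterial viability or growth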
INS1 = assay: INS-1E survival protection against cytokine death – cell-based, luminescence, retest, dose response (AID 449756); type: functional; details: Rattus norvegicus;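 note: cell death triggered by IL-1 beta plus TNF-alpha plus IFN-gamma mixture; protective hits raise ATP signal compared with cytokine alone wells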
[20] = microbe, parasite or virus in culture; type: functional; details: Mycobacterium tuberculosis
Cytochrome P450 2C19 = Cytochrome P450 2C19 (Homo sapiens, UniProt P33261); assay: Cytochrome panel assay with activity outcomes. Panel member name: p450-cyp2c19 Compounds with AC50 equal or less than 10 uM are considered active; type: functional
Cytochrome P450 2C19, sequence (P33261 whole entry): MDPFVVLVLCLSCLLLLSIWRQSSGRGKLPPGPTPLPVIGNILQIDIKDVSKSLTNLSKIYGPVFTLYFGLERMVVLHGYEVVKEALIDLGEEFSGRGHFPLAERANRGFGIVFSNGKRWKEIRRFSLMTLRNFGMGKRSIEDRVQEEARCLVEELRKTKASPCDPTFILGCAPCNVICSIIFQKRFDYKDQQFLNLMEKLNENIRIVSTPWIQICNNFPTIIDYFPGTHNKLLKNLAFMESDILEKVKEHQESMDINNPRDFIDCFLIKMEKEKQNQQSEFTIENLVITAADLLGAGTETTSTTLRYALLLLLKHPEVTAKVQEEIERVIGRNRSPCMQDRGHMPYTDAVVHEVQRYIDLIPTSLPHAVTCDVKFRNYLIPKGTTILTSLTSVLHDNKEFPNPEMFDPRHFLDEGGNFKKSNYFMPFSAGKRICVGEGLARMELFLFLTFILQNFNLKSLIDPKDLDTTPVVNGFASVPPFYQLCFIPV

Question: With `COc1ccc(/C=C/C(=O)c2cc(F)ccc2OC(=O)c2ccc(OC)c(OC)c2)cc1OC` as the compound, how does the IC50 [1] read?
Answer: 5.27 µM (active)

Question: With `CC(C)Oc1cc(NC(=O)C[S+]([O-])CC(=O)Nc2cccc(C(F)(F)F)c2)c(Cl)cc1Cl` (configuration not stated) as the compound, how does the EC50 [2] read?
Answer: 3.23 µM (active)

Question: Which EC50 (HEK293 [3]) does the source give for `COc1ccc(CCNc2oc(COc3ccc(Br)cc3)nc2C#N)cc1OC` here?
Answer: 10.5 µM (active)

Question: What about the IC50 (HEK293 [4]) of the same compound?
Answer: 5.86 µM (active)

Question: What about the IC50 (HEK293 [5]) of the same compound?
Answer: 8.84 µM (active)

Question: And the EC50 [6]?
Answer: 12.8 µM (active)

Question: What about the IC50 (HEK293 [7]) of the same compound?
Answer: 5.07 µM (active)

Question: And the IC50 (HEK293 [8])?
Answer: > 20 µM (inactive)

Question: Which CC50 [9] does the source give for `COc1ccc(N(C)C(=O)c2ccc3nc(-c4ccccc4)c(-c4ccccc4)nc3c2)cc1` here?
Answer: 12.8 µM (active)

Question: What about the EC50 [2] of the same compound?
Answer: 3.17 µM (active)

Question: Which IC50 (Estrogen receptor beta) does the source give for `Cc1cc(C)cc(OCC(=O)Nc2ccc(N3CCCC3)cc2)c1` here?
Answer: 1.56 µM (active)

Question: What about the IC50 [10] of the same compound?
Answer: 7.74 µM (active)

Question: And the IC50 (Coagulation factor XII)?
Answer: > 50 µM (inactive)

Question: Which results are given for `CCCCc1c(-c2ccccc2OC)ncn1CCc1cccc(F)c1`?
Answer: IC50 (cells [11]): 15.3 µM (inactive); EC50 [12]: 2.73 µM (active); IC50 [13]: 4.33 µM (active); EC50 (cells [14]): > 29.9 µM (inactive)

Question: With `CC[C@@H]([C@H](C)O)n1ncn(-c2ccc(N3CCN(c4ccc(OC[C@@H]5CO[C@@](Cn6cncn6)(c6ccc(F)cc6F)C5)cc4)CC3)cc2)c1=O` as the compound, how does the IC50 [15] read?
Answer: > 10 µM (inactive)

Question: What about the IC50 [16] of the same compound?
Answer: > 10 µM (inactive)

Question: What does the source list for `CCCCn1c(/C=N/Nc2nc3ccccc3[nH]2)nc2ccccc21`?
Answer: EC50 [17]: 1.66 µM (active); EC50 (cells [18]): 43.7 µM (active); EC50 (cells [19]): > 350 µM (not active); EC50 (Streptococcus): 3.74 µM (active); AC50 (INS1): 3.54 µM (active)

Question: For `C[C@]12CC[C@@H]3c4ccc(O)cc4CC[C@H]3[C@@H]1CC[C@@H]2OC(=O)CCC1CCCC1` [ESTRADIOL CYPIONATE], which CC50 [20] is on record?
Answer: 30.6 µM (active)

Question: And the IC50 [15]?
Answer: > 10 µM (inactive)

Question: And the IC50 [16]?
Answer: > 10 µM (inactive)

Question: Which AC50 (Cytochrome P450 2C19) does the source give for `NCCc1ccc(O)cc1` [TYRAMINE] here?
Answer: inconclusive

Question: What about the IC50 (cells [11]) of the same compound?
Answer: > 29.9 µM (inactive)

Question: And the EC50 [12]?
Answer: 0.178 µM (active)

Question: What about the IC50 [13] of the same compound?
Answer: 0.882 µM (active)

Question: And the EC50 (cells [14])?
Answer: > 29.9 µM (inactive)
